We go through two compounds from patent US20080021055A1, “Novel cycloalkyl derivatives as inhibitors of bone resorption and vitronectin receptor antagonists” (Aventis Pharma S.A., priority 1996, published 2008).

SMILES strings stand for the structures. pIC50: −log10 of the molar value.

This assay deals with T1, vitronectin receptor αvβ3 (Homo sapiens, UniProt P05106+P06756).
T1 construct: expressed in transfected cells
The assay is described as follows: Vn/293 cell test: inhibition of the binding of 293 cells to human vitronectin. Type of assay: cell-based. The note with it: 293 cells cotransfected with αv and β3 subunits, binding to plates coated with human vitronectin, 90 min at 37° C. An excerpt: The inhibitory action of the compounds according to the invention against the vitronectin receptor […] can be determined, for example, as described below:
Test for the measurement of the inhibition of the binding of 293 cells to human vitronectin (abbreviated in the test results to Vn/293 cell test)
1. Purification of Human Vitronectin
Human vitronectin was isolated from human plasma and purified by affinity chromatography according to the method of Yatohyo et al., Cell Structure and Function, 1988, 23, 281-292.
293 cells, a human embryonic kidney cell line, which were cotransfected with DNA sequences for the αv and β3 subunits of the vitronectin receptor were selected according to the FACS method with a view to a high expression rate (>500,000 αvβ3 receptors/cell). The selected cells were cultured and sorted again by means of FACS to obtain a stable cell line (15 D) with expression rates of >1,000,000 copies of αvβ3 per cell.
A Linbro 96-well tissue culture plate with a flat bottom was coated overnight at 4° C. with human vitronectin (0.01 mg/ml, 0.05 ml/well) in phosphate-buffered saline solution (PBS) and then blocked with 0.5% strength BSA. […] The reaction was stopped with a glycine (50 mmol)/EDTA (5 mmol) buffer (pH 10.4) and the absorption of each well was measured at 405-650 nm. The data were evaluated using standard methods.

T1 sequence (P06756 31-889 limits assumed): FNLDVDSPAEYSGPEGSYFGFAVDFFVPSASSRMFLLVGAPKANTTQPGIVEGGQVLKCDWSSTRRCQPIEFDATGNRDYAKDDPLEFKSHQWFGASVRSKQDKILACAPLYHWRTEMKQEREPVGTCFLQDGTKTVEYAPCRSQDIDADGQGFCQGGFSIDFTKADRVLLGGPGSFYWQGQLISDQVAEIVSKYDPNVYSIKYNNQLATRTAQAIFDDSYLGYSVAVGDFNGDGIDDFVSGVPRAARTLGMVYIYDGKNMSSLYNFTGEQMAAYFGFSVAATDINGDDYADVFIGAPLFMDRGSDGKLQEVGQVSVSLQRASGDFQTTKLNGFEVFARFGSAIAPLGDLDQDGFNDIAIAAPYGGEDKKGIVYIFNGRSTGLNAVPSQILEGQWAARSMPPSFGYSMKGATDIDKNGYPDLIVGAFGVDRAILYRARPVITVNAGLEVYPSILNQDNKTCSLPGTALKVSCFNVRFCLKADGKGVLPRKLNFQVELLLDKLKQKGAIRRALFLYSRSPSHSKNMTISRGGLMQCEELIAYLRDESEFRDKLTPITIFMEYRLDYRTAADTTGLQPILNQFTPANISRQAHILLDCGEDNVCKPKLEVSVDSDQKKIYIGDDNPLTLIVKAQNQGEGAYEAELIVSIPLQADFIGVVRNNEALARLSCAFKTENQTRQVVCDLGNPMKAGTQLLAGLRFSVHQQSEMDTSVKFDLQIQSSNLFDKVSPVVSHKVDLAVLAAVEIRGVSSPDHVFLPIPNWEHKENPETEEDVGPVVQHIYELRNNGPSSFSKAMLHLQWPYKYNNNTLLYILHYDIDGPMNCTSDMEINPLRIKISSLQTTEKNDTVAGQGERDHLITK
T1 sequence (P06756 891-1048 limits assumed): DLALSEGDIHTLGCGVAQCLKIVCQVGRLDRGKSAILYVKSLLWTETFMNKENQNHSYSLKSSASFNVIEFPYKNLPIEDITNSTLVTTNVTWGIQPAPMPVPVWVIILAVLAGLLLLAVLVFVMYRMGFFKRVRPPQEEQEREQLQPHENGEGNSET
T1 sequence (P05106 27-788): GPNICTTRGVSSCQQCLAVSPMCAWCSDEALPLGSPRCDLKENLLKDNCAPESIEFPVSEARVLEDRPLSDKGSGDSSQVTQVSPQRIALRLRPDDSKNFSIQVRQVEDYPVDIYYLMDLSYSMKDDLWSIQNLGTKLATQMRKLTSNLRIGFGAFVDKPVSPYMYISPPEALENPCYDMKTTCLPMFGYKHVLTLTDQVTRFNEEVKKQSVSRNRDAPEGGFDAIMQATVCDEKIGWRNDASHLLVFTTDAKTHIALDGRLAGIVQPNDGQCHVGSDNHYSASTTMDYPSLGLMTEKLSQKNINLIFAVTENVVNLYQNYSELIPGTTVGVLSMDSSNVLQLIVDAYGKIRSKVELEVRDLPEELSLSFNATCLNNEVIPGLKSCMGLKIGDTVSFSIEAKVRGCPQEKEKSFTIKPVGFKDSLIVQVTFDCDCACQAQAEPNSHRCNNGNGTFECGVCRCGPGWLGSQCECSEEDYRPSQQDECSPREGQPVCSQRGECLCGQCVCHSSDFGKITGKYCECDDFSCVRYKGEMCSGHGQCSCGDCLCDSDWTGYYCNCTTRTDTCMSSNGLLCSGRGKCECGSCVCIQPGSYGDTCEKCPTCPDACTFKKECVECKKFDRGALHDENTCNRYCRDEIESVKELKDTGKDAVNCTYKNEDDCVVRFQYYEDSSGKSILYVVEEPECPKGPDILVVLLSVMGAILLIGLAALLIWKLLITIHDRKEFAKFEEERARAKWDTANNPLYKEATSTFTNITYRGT

Usually pIC50 stands for the IC50 on a negative log10 scale, so that one unit is a factor of ten. A higher pIC50 goes with a small IC50. Compound `N=C(N)NC(=O)CCCOc1ccc(C[C@H](NC(=O)OCC23CC4CC(CC(C4)C2)C3)C(=O)O)cc1` [Example 1, (2S)-2-(1-Adamantylmethyloxycarbonylamino)-3-(4-(3-guanidinocarbonylpropyloxy)phenyl)propionic acid] had a negative logarithm of the IC50 (pIC50) of 7.49. As for `O=C(CCc1ccc(C(=O)NC[C@H](NC(=O)OCC23CC4CC(CC(C4)C2)C3)C(=O)O)cc1)NC1=NCCCN1` [Example 3, (2S)-2-(1-Adamantylmethyloxycarbonylamino)-3-(4-(2-(1,4,5,6-tetra-hydropyrimidin-2-ylcarbamoyl)ethyl)benzoylamino)propionic acid], the figure is 7.49.
